Values quoted from earlier work as cited in patent US10059696B2, “Process for preparing 1,3-dihydroimidazole-2-thione derivatives” (BIAL-PORTELA & CA, S.A., priority 2011, dated 2018).

Conditions: able to cause central as well as peripheral effects

blood brain barrier (BBB) crossing: found to cross the blood brain barrier
SMILES: NCc1c[nH]c(=S)n1[C@H]1CCc2c(F)cc(F)cc2C1 [nepicastat]
